Nine compounds from PMC10974507, “Design, Synthesis, Biological Evaluation and Molecular Docking of Novel F-18-Labeled Focal Adhesion Kinase Inhibitors as Potential Tumor Radiotracers” (Molecules, 2024) can be followed below.

Structures are written as SMILES.

Series [1] has as its target FAK (Homo sapiens, UniProt Q05397). Nature of the series: FAK inhibitory assay (homogeneous time-resolved fluorescence kinase assay). In kind it is biochemical. As to conditions: in vitro enzyme activity against FAK. As for the experimental part: The inhibitory activities of the 7a–7c against FAK were tested using a homogeneous time-resolved fluorescence methodology-based kinase assay.
(§1) The FAK kinase inhibition test and the partition coefficient test were conducted according to a previously reported method.

In series [2] the test system is mice bearing S-180 tumors. The experiment in a line: Biodistribution in S-180 tumor-bearing mice. As to conditions: for Biodistribution, Tumor (tumor uptake): S-180 tumor; for Biodistribution, Tumor (tumor uptake) / Biodistribution, Blood / Biodistribution, Bone / Biodistribution, Brine / Biodistribution, Heart / Biodistribution, Kidney / Biodistribution, Large intestine / Biodistribution, Liver / Biodistribution, Lung / Biodistribution, Muscle / Biodistribution, Small intestine / Biodistribution, Spleen / Biodistribution, Stomach: mean ± SD, n = 3. The series is classed as in vivo, Kunming mice. As to the method:
Kunming mice (female, 18−22 g) and S180 ascites mice were purchased from Beijing Xinglong Animal Technology Co., Ltd., Beijing, China and Beijing Vital River Animal Technology Co., Ltd., Beijing, China, respectively. All the mice-concerned experiments were conducted in strict accordance with the “Guidelines for Humane Treatment of Laboratory Animals”, and the whole process was approved by the Animal Protection Committee of Beijing Normal University (Approval Code: BNUCC-EAW-2023-16; Approval date: 14 June 2023). The specific experimental operations were in accordance with those methods described previously.

Series [3] in a line: Octanol/water partition coefficient determination. As to conditions: pH 7.4, read-out: logD7.4. In kind it is physicochemical. As to the method: The partition coefficients of the radiotracers [^18F]7a and [^18F]7c were determined to evaluate the octanol/water partition properties.
as §1

Setting [4] is: 30 min after intravenous injection.
[5] abbreviates: 60 min after intravenous injection.
[6] abbreviates: 120 min after intravenous injection.

Sequence of FAK (Q05397 whole entry, species assumed): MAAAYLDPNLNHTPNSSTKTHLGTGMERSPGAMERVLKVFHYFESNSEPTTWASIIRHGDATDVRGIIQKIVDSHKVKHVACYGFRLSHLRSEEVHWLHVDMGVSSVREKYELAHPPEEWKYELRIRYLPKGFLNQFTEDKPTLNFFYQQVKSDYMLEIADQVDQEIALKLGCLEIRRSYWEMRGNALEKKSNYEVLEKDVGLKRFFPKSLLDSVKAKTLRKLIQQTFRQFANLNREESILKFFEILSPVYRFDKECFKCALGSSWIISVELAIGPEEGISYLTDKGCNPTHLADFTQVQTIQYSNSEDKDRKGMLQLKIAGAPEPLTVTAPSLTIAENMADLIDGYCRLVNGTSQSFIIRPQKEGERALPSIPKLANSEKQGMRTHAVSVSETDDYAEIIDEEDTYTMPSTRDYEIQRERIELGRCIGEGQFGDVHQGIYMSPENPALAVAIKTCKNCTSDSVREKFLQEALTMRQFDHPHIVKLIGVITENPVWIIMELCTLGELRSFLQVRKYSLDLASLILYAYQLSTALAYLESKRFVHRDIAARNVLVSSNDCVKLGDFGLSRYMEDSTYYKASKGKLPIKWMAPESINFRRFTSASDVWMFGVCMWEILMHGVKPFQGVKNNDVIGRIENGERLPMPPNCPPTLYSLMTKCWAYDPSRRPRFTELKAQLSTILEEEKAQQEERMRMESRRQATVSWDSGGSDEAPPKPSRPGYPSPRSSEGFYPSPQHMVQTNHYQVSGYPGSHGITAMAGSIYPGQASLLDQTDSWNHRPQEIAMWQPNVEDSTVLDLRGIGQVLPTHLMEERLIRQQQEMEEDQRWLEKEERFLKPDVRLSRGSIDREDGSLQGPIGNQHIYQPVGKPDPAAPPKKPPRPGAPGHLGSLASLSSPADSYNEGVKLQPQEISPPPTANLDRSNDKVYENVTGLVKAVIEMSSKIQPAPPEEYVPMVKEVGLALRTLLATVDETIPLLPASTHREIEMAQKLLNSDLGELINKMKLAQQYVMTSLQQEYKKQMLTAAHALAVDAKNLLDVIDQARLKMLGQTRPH

In turn, `CNC(=O)c1cc(N2CCS(=O)(=O)CC2)ccc1Nc1nc(Nc2ccc(OCCOCCOCCF)cc2)ncc1Br` [Compound 7a, 2-((5-bromo-2-((4-(2-(2-(2-fluoroethoxy)ethoxy)ethoxy)phenyl)amino)pyrimidin-4-yl)amino)-5-(1,1-dioxidothiomorpholino)-N-methylbenzamide] showed an IC50 in series [1] of 5.59 nM.
Still for that read-out and setting: with `CNC(=O)c1cc(N2CCS(=O)(=O)CC2)ccc1Nc1nc(Nc2ccc(OCCOCCOCCF)c(C(=O)N3CCN(C(C)=O)CC3)c2)ncc1Br` [Compound 7b, 2-((2-((3-(4-acetylpiperazine-1-carbonyl)-4-(2-(2-(2-fluoroethoxy)ethoxy)ethoxy)phenyl)amino)-5-bromopyrimidin-4-yl)amino)-5-(1,1-dioxidothiomorpholino)-N-methylbenzamide] the figure was 24.6 nM.
`CNC(=O)c1cc(N2CCS(=O)(=O)CC2)ccc1Nc1nc(Nc2ccc(OCCOCCOCCF)c(-c3cnn(C)c3)c2)ncc1Br` [Compound 7c, 2-((5-bromo-2-((4-(2-(2-(2-fluoroethoxy)ethoxy)ethoxy)-3-(1-methyl-1H-pyrazol-4-yl)phenyl)amino)pyrimidin-4-yl)amino)-5-(1,1-dioxidothiomorpholino)-N-methylbenzamide] showed a half-maximal inhibitory concentration (IC50) in series [1] of 1.27 nM. In addition, in series [2] (setting [4]), the “Biodistribution, Tumor (tumor uptake)” value is reported as 6.58 ± 0.46 % ID/g.
In series [1], `CNC(=O)c1cc(N2CCN(C(C)=O)CC2)ccc1Nc1nc(Nc2ccc(OCCOCCOCCF)c(C(=O)N3CCOCC3)c2)ncc1Br` [Compound 7d, 5-(4-acetylpiperazin-1-yl)-2-((5-bromo-2-((4-(2-(2-(2-fluoroethoxy)ethoxy)ethoxy)-3-(morpholine-4-carbonyl)phenyl)amino)pyrimidin-4-yl)amino)-N-methylbenzamide] displayed an IC50 of 1970 nM.
The compound `CNC(=O)c1cc(N2CCN(C(C)=O)CC2)ccc1Nc1nc(Nc2ccc(OCCOCCOCCF)c(-c3cnn(C)c3)c2)ncc1Br` [Compound 7e, 5-(4-acetylpiperazin-1-yl)-2-((5-bromo-2-((4-(2-(2-(2-fluoroethoxy)ethoxy)ethoxy)-3-(1-methyl-1H-pyrazol-4-yl)phenyl)amino)pyrimidin-4-yl)amino)-N-methylbenzamide] came in with an IC50 in series [1] of 643 nM.
Still for that read-out and setting: with `CNC(=O)c1cc(N2CCOCC2)ccc1Nc1nc(Nc2ccc(OCCOCCOCCF)c(C(=O)N3CCN(C(C)=O)CC3)c2)ncc1Br` [Compound 7f] the figure was 10 nM; with `CCN1CCN(c2ccc(Nc3nc(Nc4ccc(OCCOCCOCCF)c(-c5cnn(C)c5)c4)ncc3Br)c(C(=O)NC)c2)CC1` [Compound 7g, 2-((5-bromo-2-((4-(2-(2-(2-fluoroethoxy)ethoxy)ethoxy)-3-(1-methyl-1H-pyrazol-4-yl)phenyl)amino)pyrimidin-4-yl)amino)-5-(4-ethylpiperazin-1-yl)-N-methylbenzamide], 1240 nM.
Regarding `CNC(=O)c1cc(N2CCS(=O)(=O)CC2)ccc1Nc1nc(Nc2ccc(OCCOCCOCC[18F])cc2)ncc1Br` [[^18F]7a], the logD in series [3] stood at 0.96. In addition, in series [2] (setting [4]), the Tumor/blood ratio was 1.34; the Tumor/muscle ratio was found to be 0.80; the “Biodistribution, Blood” value was 0.98 ± 0.26 % ID/g; the “Biodistribution, Bone” value is reported as 2.32 ± 0.45 % ID/g. For the same compound, in series [2] (setting [4]), the “Biodistribution, Brine” value is given as 0.57 ± 0.08 % ID/g; the “Biodistribution, Heart” value was found to be 3.05 ± 0.29 % ID/g; the “Biodistribution, Kidney” value stood at 3.02 ± 1.70 % ID/g; the “Biodistribution, Large intestine” value is given as 1.46 ± 0.13 % ID/g. Further, in series [2] (setting [4]), the “Biodistribution, Liver” value is on record as 23.49 ± 4.29 % ID/g; the “Biodistribution, Lung” value was determined as 33.55 ± 5.59 % ID/g; the “Biodistribution, Muscle” value is reported as 1.63 ± 0.34 % ID/g; the “Biodistribution, Small intestine” value was found to be 2.95 ± 0.17 % ID/g. In series [2] (setting [4]), the “Biodistribution, Spleen” value amounted to 5.43 ± 1.12 % ID/g; the “Biodistribution, Stomach” value was 0.92 ± 0.28 % ID/g; the “Biodistribution, Tumor (tumor uptake)” value was found to be 1.31 ± 0.07 % ID/g. Moreover, in series [2] (setting [5]), the Tumor/blood ratio turned out to be 1.45; the Tumor/muscle ratio was 0.56; the “Biodistribution, Blood” value was determined as 0.96 ± 0.10 % ID/g; the “Biodistribution, Bone” value is 2.96 ± 0.43 % ID/g. In series [2] (setting [5]), the “Biodistribution, Brine” value was 1.08 ± 0.13 % ID/g; the “Biodistribution, Heart” value is 1.12 ± 0.03 % ID/g; the “Biodistribution, Kidney” value is listed as 1.47 ± 0.18 % ID/g; the “Biodistribution, Large intestine” value is 1.36 ± 0.36 % ID/g. In series [2] (setting [5]), the “Biodistribution, Liver” value amounted to 23.16 ± 2.65 % ID/g; the “Biodistribution, Lung” value is recorded as 28.77 ± 5.72 % ID/g; the “Biodistribution, Muscle” value is listed as 2.50 ± 0.59 % ID/g; the “Biodistribution, Small intestine” value turned out to be 1.58 ± 0.35 % ID/g. Also, in series [2] (setting [5]), the “Biodistribution, Spleen” value stood at 2.53 ± 0.21 % ID/g; the “Biodistribution, Stomach” value is 0.80 ± 0.21 % ID/g; the “Biodistribution, Tumor (tumor uptake)” value was 1.39 ± 0.30 % ID/g. Further, in series [2] (setting [6]), the Tumor/blood ratio is recorded as 0.89; the Tumor/muscle ratio is reported as 4.30; the “Biodistribution, Blood” value stood at 0.92 ± 0.15 % ID/g; the “Biodistribution, Bone” value is reported as 1.27 ± 0.42 % ID/g. In series [2] (setting [6]), the “Biodistribution, Brine” value is reported as 0.16 ± 0.01 % ID/g; the “Biodistribution, Heart” value is listed as 0.85 ± 0.09 % ID/g; the “Biodistribution, Kidney” value is recorded as 1.16 ± 0.06 % ID/g; the “Biodistribution, Large intestine” value is listed as 4.5 ± 1.91 % ID/g. In addition, in series [2] (setting [6]), the “Biodistribution, Liver” value turned out to be 8.86 ± 3.14 % ID/g; the “Biodistribution, Lung” value is on record as 11.63 ± 1.25 % ID/g; the “Biodistribution, Muscle” value stood at 0.20 ± 0.03 % ID/g; the “Biodistribution, Small intestine” value amounted to 0.96 ± 0.29 % ID/g. For the same compound, in series [2] (setting [6]), the “Biodistribution, Spleen” value worked out at 5.58 ± 1.06 % ID/g; the “Biodistribution, Stomach” value was determined as 1.16 ± 0.40 % ID/g; the “Biodistribution, Tumor (tumor uptake)” value is given as 0.86 ± 0.34 % ID/g.
On to `CNC(=O)c1cc(N2CCS(=O)(=O)CC2)ccc1Nc1nc(Nc2ccc(OCCOCCOCC[18F])c(-c3cnn(C)c3)c2)ncc1Br` [[^18F]7c], for which the logD in series [3] was found to be 0.74. In series [2] (setting [4]), the Tumor/blood ratio stood at 2.40; the Tumor/muscle ratio amounted to 1.88; the “Biodistribution, Blood” value worked out at 2.74 ± 0.11 % ID/g; the “Biodistribution, Bone” value was found to be 4.12 ± 0.39 % ID/g. Moreover, in series [2] (setting [4]), the “Biodistribution, Brine” value stood at 2.81 ± 0.06 % ID/g; the “Biodistribution, Heart” value came to 3.46 ± 0.65 % ID/g; the “Biodistribution, Kidney” value is 4.00 ± 0.25 % ID/g; the “Biodistribution, Large intestine” value came out at 6.18 ± 0.60 % ID/g. In series [2] (setting [4]), the “Biodistribution, Liver” value worked out at 17.64 ± 4.45 % ID/g; the “Biodistribution, Lung” value was 120.47 ± 15.08 % ID/g; the “Biodistribution, Muscle” value is listed as 3.50 ± 0.18 % ID/g; the “Biodistribution, Small intestine” value amounted to 13.02 ± 1.93 % ID/g. For the same compound, in series [2] (setting [4]), the “Biodistribution, Spleen” value is 16.32 ± 1.26 % ID/g; the “Biodistribution, Stomach” value turned out to be 5.81 ± 1.02 % ID/g; the “Biodistribution, Tumor (tumor uptake)” value is 6.58 ± 0.46 % ID/g. Besides, in series [2] (setting [5]), the Tumor/blood ratio turned out to be 1.71; the Tumor/muscle ratio came to 2.09; the “Biodistribution, Blood” value came to 3.43 ± 0.04 % ID/g; the “Biodistribution, Bone” value was found to be 4.86 ± 0.30 % ID/g. In addition, in series [2] (setting [5]), the “Biodistribution, Brine” value is 3.12 ± 0.66 % ID/g; the “Biodistribution, Heart” value was 2.53 ± 0.56 % ID/g; the “Biodistribution, Kidney” value worked out at 3.82 ± 0.44 % ID/g; the “Biodistribution, Large intestine” value turned out to be 4.47 ± 0.44 % ID/g. In addition, in series [2] (setting [5]), the “Biodistribution, Liver” value is given as 19.21 ± 3.81 % ID/g; the “Biodistribution, Lung” value is given as 128.13 ± 6.74 % ID/g; the “Biodistribution, Muscle” value stood at 2.80 ± 0.49 % ID/g; the “Biodistribution, Small intestine” value came to 5.73 ± 0.82 % ID/g. For the same compound, in series [2] (setting [5]), the “Biodistribution, Spleen” value amounted to 8.48 ± 0.10 % ID/g; the “Biodistribution, Stomach” value turned out to be 1.14 ± 0.16 % ID/g; the “Biodistribution, Tumor (tumor uptake)” value came out at 5.85 ± 0.28 % ID/g. In addition, in series [2] (setting [6]), the Tumor/blood ratio was 1.37; the Tumor/muscle ratio is reported as 2.16; the “Biodistribution, Blood” value is 3.79 ± 0.46 % ID/g; the “Biodistribution, Bone” value was determined as 10.70 ± 1.01 % ID/g. Moreover, in series [2] (setting [6]), the “Biodistribution, Brine” value was found to be 2.01 ± 0.18 % ID/g; the “Biodistribution, Heart” value is recorded as 3.12 ± 0.25 % ID/g; the “Biodistribution, Kidney” value amounted to 3.50 ± 0.37 % ID/g; the “Biodistribution, Large intestine” value was determined as 48.07 ± 9.85 % ID/g. Also, in series [2] (setting [6]), the “Biodistribution, Liver” value stood at 28.36 ± 5.74 % ID/g; the “Biodistribution, Lung” value amounted to 125.29 ± 16.25 % ID/g; the “Biodistribution, Muscle” value was determined as 2.04 ± 0.12 % ID/g; the “Biodistribution, Small intestine” value was found to be 7.49 ± 1.46 % ID/g. In series [2] (setting [6]), the “Biodistribution, Spleen” value was determined as 24.70 ± 4.31 % ID/g; the “Biodistribution, Stomach” value was found to be 3.32 ± 0.31 % ID/g; the “Biodistribution, Tumor (tumor uptake)” value came to 5.18 ± 0.68 % ID/g.

The IC50 is the midpoint of a concentration-inhibition curve. High values mean weaker potency in that assay, low ones greater potency in that assay.
